Data taken from US20240336642A1 (The General Hospital Corporation, priority 2021, published 2024).
Counter-ions that a name gives are not always drawn.

Tests used:
[1] = Metabolic stability of exemplified compounds (Example 4); format: in vitro ADME
h12/15-LOX = h12/15-LOX (Homo sapiens (Human), UniProt P16050); assay: 12/15-LOX enzyme inhibition IC50 assay (Examples 1 and 2); format: biochemical; settings: for Emax / Max % inhibition: h12/15-LOX; for Emax: read-out: Max % inhibition
Method: Enzyme was then added to the cuvettes. […] The % inhibition for each test compound concentration were calculated as follows: […]

[2] = Aqueous solubility of exemplified compounds (Example 3); format: physicochemical; settings: aqueous solubility

h12/15-LOX, sequence (P16050 whole entry): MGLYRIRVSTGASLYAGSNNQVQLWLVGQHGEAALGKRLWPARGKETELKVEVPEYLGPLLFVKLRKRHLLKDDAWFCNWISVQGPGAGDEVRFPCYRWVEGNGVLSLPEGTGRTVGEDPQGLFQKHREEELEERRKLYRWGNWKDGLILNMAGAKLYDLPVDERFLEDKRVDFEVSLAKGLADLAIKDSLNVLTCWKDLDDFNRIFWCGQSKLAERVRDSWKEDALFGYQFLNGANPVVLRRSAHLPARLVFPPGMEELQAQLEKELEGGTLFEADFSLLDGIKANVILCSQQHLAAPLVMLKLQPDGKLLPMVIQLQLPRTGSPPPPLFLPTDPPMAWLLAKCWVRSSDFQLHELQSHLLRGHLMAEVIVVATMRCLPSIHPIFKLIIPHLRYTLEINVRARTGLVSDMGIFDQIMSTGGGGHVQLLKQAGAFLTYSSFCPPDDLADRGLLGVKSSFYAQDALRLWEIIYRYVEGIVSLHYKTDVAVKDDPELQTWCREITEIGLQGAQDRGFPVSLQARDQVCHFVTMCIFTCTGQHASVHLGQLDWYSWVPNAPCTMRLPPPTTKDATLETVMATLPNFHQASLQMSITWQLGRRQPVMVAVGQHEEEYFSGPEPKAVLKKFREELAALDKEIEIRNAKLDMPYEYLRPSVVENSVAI

Structure (SMILES)	Extr (EH) ([1]; Human liver microsomes)	microsomal CLint ([1]; Human liver microsomes)	Extr (EH) ([1]; Mouse liver microsomes)	microsomal CLint ([1]; Mouse liver microsomes)	Extr (EH) ([1]; Rat liver microsomes)	microsomal CLint ([1]; Rat liver microsomes)	IC50 (h12/15-LOX)	Emax (h12/15-LOX)	Sol [2]	CLint ([1]; Human liver microsomes)	CLint ([1]; Mouse liver microsomes)	CLint ([1]; Rat liver microsomes)	Max % inhibition (h12/15-LOX)
N#Cc1nc(-c2cc(Cl)cc(Cl)c2Cl)oc1NCCCCO [Compound 17, 5-((4-Hydroxybutyl)amino)-2-(2,3,5-trichlorophenyl)oxazole-4-carbonitrile]	* (“*” <50%)	< 20 µL/min/mg	* (“*” <50%)	< 20 µL/min/mg	* (“*” <50%)	< 20 µL/min/mg	1900 nM	100%	++ (“++” 10-20 μM)				
N#Cc1nc(-c2cc(Cl)cc(Cl)c2Cl)oc1NC/C=C/COCc1ccccc1 [Compound 47, (E)-5-((4-(Benzyloxy)but-2-en-1-yl)amino)-2-(2,3,5-trichlorophenyl)oxazole-4-carbonitrile]	** (“**” 50-100%)	100 to 200 µL/min/mg	** (“**” 50-100%)	100 to 200 µL/min/mg	** (“**” 50-100%)	100 to 200 µL/min/mg	230 nM	98%	+ (“+” < 10 μM)				
COCCOCCOCCNc1oc(-c2cc(Cl)cc(Cl)c2Cl)nc1C#N [Compound 50, 5-((2-(2-(2-Methoxyethoxy)ethoxy)ethyl)amino)-2-(2,3,5-trichlorophenyl)oxazole-4-carbonitrile]	** (“**” 50-100%)		** (“**” 50-100%)		** (“**” 50-100%)		890 nM		+++ (“+++” 20-50 μM)	++ (“++” 20-100 μL/min/mg)	++ (“++” 20-100 μL/min/mg)	++ (“++” 20-100 μL/min/mg)	99%
COCCNc1oc(-c2cc(Cl)cc(Cl)c2Cl)nc1C#N [Compound 39, 5-((2-Methoxyethyl)amino)-2-(2,3,5-trichlorophenyl)oxazole-4-carbonitrile]	** (“**” 50-100%)	20 to 100 µL/min/mg	** (“**” 50-100%)	100 to 200 µL/min/mg	** (“**” 50-100%)	20 to 100 µL/min/mg	370 nM	100%	+ (“+” < 10 μM)				
COCC/C=C/CNc1oc(-c2cc(Cl)cc(Cl)c2Cl)nc1C#N [Compound 46, (E)-5-((5-Methoxypent-2-en-1-yl)amino)-2-(2,3,5-trichlorophenyl)oxazole-4-carbonitrile]	** (“**” 50-100%)	20 to 100 µL/min/mg	** (“**” 50-100%)	100 to 200 µL/min/mg	** (“**” 50-100%)	20 to 100 µL/min/mg	210 nM	95%	+ (“+” < 10 μM)				
COC/C=C/CNc1oc(-c2cc(Cl)cc(Cl)c2Cl)nc1C#N [Compound 45, (E)-5-((4-Methoxybut-2-en-1-yl)amino)-2-(2,3,5-trichlorophenyl)oxazole-4-carbonitrile]	** (“**” 50-100%)	20 to 100 µL/min/mg	** (“**” 50-100%)	100 to 200 µL/min/mg	** (“**” 50-100%)	20 to 100 µL/min/mg	190 nM	98%	+ (“+” < 10 μM)				
CC(C)OCCOCCNc1oc(-c2cc(Cl)cc(Cl)c2Cl)nc1C#N [Compound 49, 5-((2-(2-Isopropoxyethoxy)ethyl)amino)-2-(2,3,5-trichlorophenyl)oxazole-4-carbonitrile]	* (“*” <50%)	< 20 µL/min/mg	** (“**” 50-100%)	20 to 100 µL/min/mg	** (“**” 50-100%)	20 to 100 µL/min/mg	660 nM	95%	+ (“+” < 10 μM)				
N#Cc1nc(-c2cc(Cl)cc(Cl)c2Cl)oc1NCCOCCO [Compound 28, 5-((2-(2-Hydroxyethoxy)ethyl)amino)-2-(2,3,5-trichlorophenyl)oxazole-4-carbonitrile]	** (“**” 50-100%)	20 to 100 µL/min/mg	* (“*” <50%)	20 to 100 µL/min/mg	* (“*” <50%)	< 20 µL/min/mg	1500 nM	87%	+++ (“+++” 20-50 μM)				
COCCOCCCCNc1oc(-c2cc(Cl)cc(Cl)c2Cl)nc1C#N [Compound 48, 5-((4-(2-Methoxyethoxy)butyl)amino)-2-(2,3,5-trichlorophenyl)oxazole-4-carbonitrile]	** (“**” 50-100%)		** (“**” 50-100%)		** (“**” 50-100%)		620 nM		+ (“+” < 10 μM)	++ (“++” 20-100 μL/min/mg)	+++ (“+++” 100-200 μL/min/mg)	++ (“++” 20-100 μL/min/mg)	100%
N#Cc1nc(-c2cc(Cl)cc(Cl)c2Cl)oc1NCCCO [Compound 16, 5-((3-Hydroxypropyl)amino)-2-(2,3,5-trichlorophenyl)oxazole-4-carbonitrile]	* (“*” <50%)	< 20 µL/min/mg	** (“**” 50-100%)	100 to 200 µL/min/mg	* (“*” <50%)	20 to 100 µL/min/mg	4300 nM	100%	+++ (“+++” 20-50 μM)				
N#Cc1nc(-c2cc(Cl)cc(Cl)c2Cl)oc1NCC#CCOCc1ccccc1 [Compound 43, 5-((4-(Benzyloxy)but-2-yn-1-yl)amino)-2-(2,3,5-trichlorophenyl)oxazole-4-carbonitrile]	** (“**” 50-100%)	100 to 200 µL/min/mg	** (“**” 50-100%)	20 to 100 µL/min/mg	** (“**” 50-100%)	20 to 100 µL/min/mg	230 nM	93%	+ (“+” < 10 μM)				
Cc1cc(OCCOCCNc2oc(-c3cc(Cl)cc(Cl)c3Cl)nc2C#N)cc(C)n1 [Compound 83, 5-((2-(2-((2,6-Dimethylpyridin-4-yl)oxy)ethoxy)ethyl)amino)-2-(2,3,5-trichlorophenyl)oxazole-4-carbonitrile]							180 nM	61%					
N#Cc1nc(-c2cc(Cl)cc(Cl)c2Cl)oc1NCCOCCN1CCCC(F)C1 (stereo not shown) [Compound 74, 5-((2-(2-(3-Fluoropiperidin-1-yl)ethoxy)ethyl)amino)-2-(2,3,5-trichlorophenyl)oxazole-4-carbonitrile]							> 20000 nM						
N#Cc1nc(-c2cc(Cl)cc(Cl)c2Cl)oc1NCC#CCOCc1ccncc1 [Compound 88, 5-((4-(Pyridin-4-ylmethoxy)but-2-yn-1-yl)amino)-2-(2,3,5-trichlorophenyl)oxazole-4-carbonitrile]							81 nM	74%					
N#Cc1nc(-c2cc(Cl)cc(Cl)c2OC(F)F)oc1NCCOCCO [Compound 29, 2-(3,5-Dichloro-2-(difluoromethoxy)phenyl)-5-((2-(2-hydroxyethoxy)ethyl)amino)oxazole-4-carbonitrile]							3000 nM	100%					
CCOCCOCCNc1oc(-c2cc(Cl)cc(Cl)c2Cl)nc1C#N [Compound 69, 5-((2-(2-Ethoxyethoxy)ethyl)amino)-2-(2,3,5-trichlorophenyl)oxazole-4-carbonitrile]							330 nM	100%					
CN(CCF)CCOCCNc1oc(-c2cc(Cl)cc(Cl)c2Cl)nc1C#N [Compound 96, 5-((2-(2-((2-Fluoroethyl)(methyl)amino)ethoxy)ethyl)amino)-2-(2,3,5-trichlorophenyl)oxazole-4-carbonitrile]							4400 nM	93%					
N#Cc1nc(-c2cc(Cl)cc(Cl)c2Cl)oc1NCCOCCOc1cncnc1 [Compound 82, 5-((2-(2-(Pyrimidin-5-yloxy)ethoxy)ethyl)amino)-2-(2,3,5-trichlorophenyl)oxazole-4-carbonitrile]							360 nM	82%					
N#Cc1nc(-c2cc(Cl)cc(Cl)c2Cl)oc1NCCOCCOc1ccnc(F)c1 [Compound 102, 5-((2-(2-((2-Fluoropyridin-4-yl)oxy)ethoxy)ethyl)amino)-2-(2,3,5-trichlorophenyl)oxazole-4-carbonitrile]							110 nM	86%					
N#Cc1nc(-c2cc(Cl)cc(Cl)c2Cl)oc1NCCOCCOc1ccncc1 [Compound 97, 5-((2-(2-(Pyridin-4-yloxy)ethoxy)ethyl)amino)-2-(2,3,5-trichlorophenyl)oxazole-4-carbonitrile]							110 nM	68%					
N#Cc1nc(-c2cc(Cl)cc(Cl)c2Cl)oc1NCCOCCN1CCCC(F)(F)C1 [Compound 75, 5-((2-(2-(3,3-Difluoropiperidin-1-yl)ethoxy)ethyl)amino)-2-(2,3,5-trichlorophenyl)oxazole-4-carbonitrile]							1100 nM	61%					
N#Cc1nc(-c2cc(Cl)cc(Cl)c2Cl)oc1NCCOCCOCC(F)(F)F [Compound 71, 2-(2,3,5-Trichlorophenyl)-5-((2-(2-(2,2,2-trifluoroethoxy)ethoxy)ethyl)amino)oxazole-4-carbonitrile]							160 nM	95%					
CN(CCOCCNc1oc(-c2cc(Cl)cc(Cl)c2Cl)nc1C#N)c1ccccc1 [Compound 95, 5-((2-(2-(Methyl(phenyl)amino)ethoxy)ethyl)amino)-2-(2,3,5-trichlorophenyl)oxazole-4-carbonitrile]							260 nM	83%					
COCCOC(=O)N(C)c1oc(-c2cc(Cl)cc(Cl)c2Cl)nc1C#N [Compound 55, 2-Methoxyethyl (4-cyano-2-(2,3,5-trichlorophenyl)oxazol-5-yl)(methyl)carbamate]							> 20000 nM						
CN(C)CCCOC(=O)Nc1oc(-c2cc(Cl)cc(Cl)c2Cl)nc1C#N [Compound 57, 3-(dimethylamino) propyl (4-cyano-2-(2,3,5-trichlorophenyl)oxazol-5-yl) carbamate hydrochloride]							> 20000 nM						
